Measurements taken from patent publication US11931380B2, “Inhibition of diacylglycerol kinase to augment adoptive T cell transfer” (THE TRUSTEES OF THE UNIVERSITY OF PENNSYLVANIA, priority 2012, dated 2024).

How the values were obtained:
DGK [1] = assay: Lysis of EM-meso-luc cells by antigen-exposed human mesoCAR T cells with or without DGK inhibitors; type: cell-based; conditions: 5 μg/mL inhibitor, 18 hours, after 96 hours exposure to EM-meso
Experimental: Primary human T cells were obtained and mock infected or transduced with lentivirus expressing mesoCAR as previously described (Moon et al., 2011, Clin Cancer Res 17:4719-30). A total of 5×10^6 T cells were subsequently added to 24-well plates that had been seeded with 5×10^5 cells either from the epithelial mesothelioma (EM) human mesothelioma line or a stable derivative cell line, EM-meso, engineered to express high levels of mesothelin, in a 24-well dish. […] Cells were assessed for viability using Trypan blue, and 1×10^5 live T cells were cocultured with 5×10^3 EM-meso-luc cells expressing luciferase in 96-well plates in the presence or absence of the DGK inhibitors DGK1 (R59022) or DGK2 (R59949; Sigma) at 5 μg/mL. After 18 hours, remaining tumor cells were washed and lysed, and luminescence was evaluated. Cell lysate determinations were corroborated with visual estimate of remaining numbers of tumor cells.

DGK [2] = assay: DGK inhibitor effect on killing activity of human CAR-TIL; type: cell-based; conditions: preliminary observations
Experimental: In addition, experiments were conducted to mimic potential human trials in which mice with established tumors were injected intravenously with 10^7 wild type T cells or the three types of DGK knockout T cells. […] Preliminary relevant observations in human CAR T cells have been recorded using a commercially available DGK inhibitor (R59022). Human mesothelin-CAR T cells mixed with human mesothelin tumor cells (at a 1:1 ratio) were injected into immunodeficient mice. The tumor growth was slowed, but not prevented by the CAR-T cells. After 2-3 weeks, tumors were harvested and the human CAR-T cells were purified. When these T cells (Tumor infiltrating lymphocytes, or TILs) are allowed to react with fresh tumors, they can kill only 5-10% of the tumor cells showing they are hypofunctional compared to freshly made CAR-T cells which kill 70% of tumor cells (FIG. 15).

DGK [3] = conditions: freshly isolated human TIL, renal cell cancers; cited from earlier work

O=c1c2ccccc2[nH]c(=S)n1CCN1CCC(=C(c2ccc(F)cc2)c2ccc(F)cc2)CC1 [R59949]
cytotoxicity of mesothelin-exposed mesoCAR T cells (DGK [1]): reverse the impaired cytotoxicity

Cc1nc2sccn2c(=O)c1CCN1CCC(=C(c2ccccc2)c2ccc(F)cc2)CC1 [R59022]
function (killing activity) of human CAR-TIL (DGK [2]): augments function
cytotoxicity of mesothelin-exposed mesoCAR T cells (DGK [1]): reverse the impaired cytotoxicity
TIL function (DGK [3]): improve TIL function
